Test results from patent US9051273B2, “Phosphodiesterase 4 inhibitor capable of avoiding vomiting” (priority 2012, dated 2015).

Tests used:
[1] = molecular target: PDE4D4 (Homo sapiens, UniProt Q08499); experiment: Phosphodiesterase 4 inhibitory activity test (IMAP fluorescence polarization), PDE4D4; type: biochemical; settings: Table 1
Description: (§1) Phosphodiesterase 4 inhibitory activity test utilizes IMAP technology, which is called immobilized metal ion affinity-based fluorescence polarization and provide a stable and accurate approach for determining the inhibitory potential of compounds.

[2] = molecular target: PDE4D5 (Homo sapiens, UniProt Q08499); experiment: Phosphodiesterase 4 inhibitory activity test (IMAP fluorescence polarization), PDE4D5; type: biochemical; settings: Table 1
Chain of PDE4D5 (Q08499 1-745 isoform Q08499-6): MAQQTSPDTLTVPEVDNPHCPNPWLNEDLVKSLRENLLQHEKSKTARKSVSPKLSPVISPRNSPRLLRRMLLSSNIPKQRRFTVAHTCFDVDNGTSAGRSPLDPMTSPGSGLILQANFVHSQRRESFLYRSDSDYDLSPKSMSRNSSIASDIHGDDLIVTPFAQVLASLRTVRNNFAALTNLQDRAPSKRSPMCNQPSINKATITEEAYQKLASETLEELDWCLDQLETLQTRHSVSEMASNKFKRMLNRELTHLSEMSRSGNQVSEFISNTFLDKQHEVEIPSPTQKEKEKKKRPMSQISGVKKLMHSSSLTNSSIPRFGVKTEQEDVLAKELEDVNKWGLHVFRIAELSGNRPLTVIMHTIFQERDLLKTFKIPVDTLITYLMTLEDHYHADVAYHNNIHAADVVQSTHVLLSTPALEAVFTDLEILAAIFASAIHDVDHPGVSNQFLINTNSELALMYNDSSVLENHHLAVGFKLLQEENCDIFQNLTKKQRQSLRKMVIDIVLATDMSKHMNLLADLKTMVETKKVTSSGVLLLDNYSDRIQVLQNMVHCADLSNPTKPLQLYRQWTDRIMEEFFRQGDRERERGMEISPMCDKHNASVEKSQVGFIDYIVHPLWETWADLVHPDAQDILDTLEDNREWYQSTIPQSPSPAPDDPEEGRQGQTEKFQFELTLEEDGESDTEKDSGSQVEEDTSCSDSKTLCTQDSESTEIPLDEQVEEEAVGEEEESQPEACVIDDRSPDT
Description: as §1

[3] = system: beagle dogs; experiment: Potential vomiting effects (emesis) in beagle dogs; type: in vivo; settings: observation 120 minutes
Procedure: 2. Preliminary assessing the potential vomiting effects of new PDE4 inhibitor III-3
The potential vomiting observation time is 120 minutes after the oral administration. The latency was determined by the interval time from the oral administration of the drugs to the nausea, retching, a lot of salivation and vomiting of gastric contents. The incidence of emesis was also recorded.

[4] = system: mice with scopolamine-induced cognitive deficits; experiment: Morris water maze, learning and memory with scopolamine-induced cognitive deficits in mice; type: in vivo, kunming mice; settings: administered 1 week, space exploration on fifth day, X ± S
Procedure: 1. The effects of the new PDE4 inhibitor III-3 on the learning and memory with scopolamine-induced cognitive deficits in mice
After being continuously administered with veh or compounds for 1 week, the behavioral tests are determined by Morris water maze. 20 minutes before test, saline is given into the blank control mice through intraperitoneal injection, while scopolamine is intraperitoneally injected to the other five groups. These mice are continuously trained for 4 days, and the space exploration experiment is performed on the fifth day for recording the latency to target quadrant, the number of crossing and retention time in the target quadrant during the test period of each mice.

[5] = scopolamine + Rolipram 0.5 mg/kg

Chain of PDE4D4 (Q08499 whole entry): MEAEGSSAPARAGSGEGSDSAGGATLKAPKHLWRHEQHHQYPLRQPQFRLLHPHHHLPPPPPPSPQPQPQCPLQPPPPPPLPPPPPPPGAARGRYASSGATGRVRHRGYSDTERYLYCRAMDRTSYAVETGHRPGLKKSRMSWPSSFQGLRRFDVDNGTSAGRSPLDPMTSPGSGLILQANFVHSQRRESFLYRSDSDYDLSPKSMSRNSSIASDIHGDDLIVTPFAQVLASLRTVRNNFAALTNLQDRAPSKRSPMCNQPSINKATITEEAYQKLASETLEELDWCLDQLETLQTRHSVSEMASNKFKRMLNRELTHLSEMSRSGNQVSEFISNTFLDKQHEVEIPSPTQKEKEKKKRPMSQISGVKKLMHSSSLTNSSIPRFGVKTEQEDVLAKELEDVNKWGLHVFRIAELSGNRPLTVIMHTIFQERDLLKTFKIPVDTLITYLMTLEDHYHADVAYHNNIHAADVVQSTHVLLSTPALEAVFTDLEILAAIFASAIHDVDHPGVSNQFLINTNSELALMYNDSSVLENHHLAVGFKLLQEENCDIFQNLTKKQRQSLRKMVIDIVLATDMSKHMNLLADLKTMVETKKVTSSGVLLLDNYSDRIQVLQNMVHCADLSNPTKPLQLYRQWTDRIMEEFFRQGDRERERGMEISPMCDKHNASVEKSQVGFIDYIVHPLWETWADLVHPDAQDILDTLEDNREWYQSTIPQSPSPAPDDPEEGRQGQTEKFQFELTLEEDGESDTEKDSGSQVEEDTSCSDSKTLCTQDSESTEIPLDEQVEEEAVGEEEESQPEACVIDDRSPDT

| SMILES | IC50 [1] | IC50 [2] | other results |
| --- | --- | --- | --- |
| COc1ccc(CN2CCN(c3ccccc3OC)CC2)cc1-c1cccc(Cl)c1 [II-1] | 115 µM | 83.7 µM | – |
| COc1ccc(CN2CCN(c3ccccc3Cl)CC2)cc1-c1cccc(Cl)c1 [II-2] | 141 µM | 50.9 µM | – |
| COc1ccc(Cn2ncc(Cl)c(Cl)c2=O)cc1-c1cccc(Cl)c1 [III-1] | 22.4 µM | 8.32 µM | – |
| COc1ccc(Cn2nc(N3CCN(c4ccccc4Cl)CC3)ccc2=O)cc1-c1cccc(Cl)c1 [III-2] | 137 µM | 110 µM | – |
| COc1ccccc1OCCNc1ccc(=O)n(Cc2ccc(OC)c(-c3cccc(Cl)c3)c2)n1 [III-3] | 7.82 µM | 8.48 µM | Incidence of emesis ([3]; 1.0 mg/kg oral): 0/3; Latency period (min) of emesis ([3]; 1.0 mg/kg oral): >120 min; Latency to target quadrant (t/s) ([4]; scopolamine + III-3 0.2 mg/kg): 9.96 ± 2.32 s; Retention time in target quadrant time (t/s) ([4]; scopolamine + III-3 0.2 mg/kg): 42.78 ± 4.56 s; The number of crossing target quadrant ([4]; scopolamine + III-3 0.2 mg/kg): 6.67 ± 1.29 |
| COc1ccc(C2CNC(=O)C2)cc1OC1CCCC1 (centres unmarked) [Rolipram, reference compound] | – | – | Incidence of emesis ([3]; 0.5 mg/kg oral gavage): 6/6; Latency period (min) of emesis ([3]; 0.5 mg/kg oral gavage): 10.67 ± 2.68 min; Latency to target quadrant (t/s) [4, 5]: 16.09 ± 3.29 s; Retention time in target quadrant time (t/s) [4, 5]: 38.34 ± 3.65 s; The number of crossing target quadrant [4, 5]: 6.89 ± 0.59 |
